Data on four compounds can be found in patent publication US12527835B2, “Brevican-binding peptides for brain tumor imaging” (The Brigham and Women's Hospital, Inc., priority 2018, dated 2026).

The subject of assay [1] is HEK-Bcan cells. Kind of assay: Flow cytometry blocking study with 50× molar excess of unlabeled peptide. Type of assay: cell-based, human. The following applies: fluorescein-conjugated peptide 1 μM. The method, then: (§1) Cells were washed once with PBS and then, treated with 1 mL of 2.5 mM EDTA to dissociate the cells. The EDTA was removed by centrifugation, and PBS supplemented with 10% FBS was added to create a single-cell suspension. All peptide stocks were dissolved in DMSO, and stored at −20° C. in the dark. Cells were incubated with each peptide (at the desired final concentration, between 1-10 μM) for 3 hrs at 37° C. in the dark under constant rotation. After incubation, cells were washed 3× with PBS with 10% FBS (by centrifugation at 7000 rpm for 3 mins each). Then, cells were resuspended in 3.7% formaldehyde for fixation, and finally washed once with PBS. Cells were evaluated for peptide uptake (mean fluorescence intensity) by flow cytometry (10,000-20,000 events).
For blocking studies, cells were dissociated as described above and resuspended in cold PBS with 10% FBS. Cells were then incubated with a 50× molar excess of unlabeled peptide for 10 mins on ice, before adding the corresponding FITC-labeled peptide at a final concentration of 1 μM and incubated for 1.5 hrs on ice. Cells were then washed with cold PBS with 10% FBS, fixed and analyzed by flow cytometry.
A general note: In flow cytometry, cells or beads pass a laser one at a time.

The test system of assay [2] is HEK-Bcan cells. Briefly: Flow cytometry cell uptake, HEK-Bcan versus regular HEK cells. The format is cell-based, human. The following applies: Cy5.5-conjugated peptides, 5 μM. The method, then: as §1
The subject of assay [3] is GBM-6 cells. Briefly: Flow cytometry cell uptake in GBM-6 cells. The format is cell-based, human. The following applies: Cy5.5-conjugated peptides; for uptake in GBM-6 cells at 4° C. compared to 37° C.: 5 μM, inhibition of endocytosis. Here is the method: as §1
In assay [4] the test system is BT188 glioma stem cells. Briefly: Peptide uptake in BT188 (BΔg-high) versus BT145 (BΔg-low) glioma stem cells, fluorescence imaging. The format is cell-based, human. The following applies: fluorescein-labeled peptides, 5 μM. The text has this:
FIGS. 3A-I. Peptide characterization for BΔg specificity in glioma stem cells. (a) Table summary listing the properties of 7 peptides (composed of 8 D-amino acid residues, SEQ ID NOs:3-9, in order of appearance) that were isolated from the OBOC library screen. MW=molecular weight; KD=Kyte-Doolittle scale for amino acid hydropathy (positive scores indicate […]) (Kyte and Doolittle, J. Mol. Biol. 157, 105-132 (1982)). (b) Chemical structure showing the linkage between the peptide and FITC. (c) Western blot analysis showing the level of BΔg and Bcan in human embryo kidney (HEK) cells, and Bcan-overexpressing HEK cells (HEK-Bcan). […] Each group was normalized to a no-blocking (vehicle) control. Statistics were performed using multiple t-tests, and significance was measured in comparison to each vehicle control (p<0.0001). (e) Uptake of fluorescein-labeled BTP-2, 7, 8, 9, and 10 (at 5 μM conc.) in BT188 (BΔg-high) or BT145 (BΔg-low) glioma stem cells (GSCs). Western blot analysis on the top right confirms the BΔg expression level. […] Statistics were performed using the two-way ANOVA and Tukey's Multiple Comparison test. (f) Chemical structure showing the linkage between the peptide and Cy5.5 dye. (g) Western blot analysis showing the expression of BΔg in GBM-6 cells, with negligible BΔg level in astrocytes or neural progenitor cells (NPC). (h) Graph showing the cell uptake ranking of the top 3 peptide candidates, BTP-7, 8 and 9 in GBM-6 cells as determined by flow cytometry analysis with s.d. error bars (5 μM conc.; nevents=20,000 cells; nexperiment=5). Each group is normalized to the control scramble peptide (Scr-8). Statistics were performed using the one-way ANOVA and Tukey's Multiple Comparison test (significance were measured in comparison to the Scr-8 control). (i) Bar graph showing the uptake of BTP-7, 8 and 9 in GBM-6 cells and NPC with 95% confidence interval error bars (1 μM conc.; nevents=20,000 cells). Statistics were performed using the two-way ANOVA and Sidak's Multiple Comparison test.

Assay [5] concerns the target T1, recombinant BΔg protein (deglycosylated brevican) (Homo sapiens, UniProt Q96GW7).
T1 construct: purchased R&D Systems 4009-BC-050
T1 sequence (Q96GW7 23-911): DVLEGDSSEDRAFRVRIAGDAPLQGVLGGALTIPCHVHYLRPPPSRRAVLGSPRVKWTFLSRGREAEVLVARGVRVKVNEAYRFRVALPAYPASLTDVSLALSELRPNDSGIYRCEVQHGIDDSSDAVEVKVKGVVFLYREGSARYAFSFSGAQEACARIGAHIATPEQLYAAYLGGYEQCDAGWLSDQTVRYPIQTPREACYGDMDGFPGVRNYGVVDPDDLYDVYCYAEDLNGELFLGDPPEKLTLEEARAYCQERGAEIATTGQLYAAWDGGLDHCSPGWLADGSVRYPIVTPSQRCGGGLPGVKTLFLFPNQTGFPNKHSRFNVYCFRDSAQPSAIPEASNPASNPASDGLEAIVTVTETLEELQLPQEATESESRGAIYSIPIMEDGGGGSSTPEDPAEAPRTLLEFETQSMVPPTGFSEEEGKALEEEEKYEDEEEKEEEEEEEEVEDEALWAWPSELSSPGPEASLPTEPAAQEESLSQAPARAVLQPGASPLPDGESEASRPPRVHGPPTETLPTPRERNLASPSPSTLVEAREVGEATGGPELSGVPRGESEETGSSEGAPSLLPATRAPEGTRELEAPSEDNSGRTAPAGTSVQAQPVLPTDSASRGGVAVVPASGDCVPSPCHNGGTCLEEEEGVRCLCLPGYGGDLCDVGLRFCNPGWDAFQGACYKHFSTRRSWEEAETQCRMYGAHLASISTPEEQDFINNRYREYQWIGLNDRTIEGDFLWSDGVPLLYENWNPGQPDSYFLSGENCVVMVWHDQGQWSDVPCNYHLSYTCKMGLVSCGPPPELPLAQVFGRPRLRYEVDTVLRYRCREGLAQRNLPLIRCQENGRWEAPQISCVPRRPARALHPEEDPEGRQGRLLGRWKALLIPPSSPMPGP
Briefly: Octet steady state binding affinity to recombinant BΔg. Here is the method: A ForteBio OctetRed384 instrument was used to study the binding kinetics of each peptide to recombinant human brevican (re-suspended in PBS and 0.1 mM EDTA, pH 6.8). The brevican protein was deglycosylated prior to experimental use in water+0.05% tween, PI, sialidase, 0-glycosidase, N-glycosidase in sodium acetate [200 mM], NaCl [250 mM], Tris-HCl [200 mM], pH 7.5.) in the presence of protease inhibitor overnight at 4° C. (this entire composition will be referred to as ‘de-glycosylation buffer’). […] The final volume for all the solutions was 80 μl/well. Assays were performed at 30° C. in solid black 384-well plates (Geiger Bio-One). Prior to beginning, Ni-NTA biosensors were soaked for 10 min in working buffer. Before loading the protein onto each biosensor, a baseline was established in working buffer for 60 s. Deglycosylated brevican (50 μg/ml BΔg; His-tagged) was loaded on the surface of each biosensors for 180 s. […] Reference biosensors were also included in the plate as internal controls, where biosensors were exposed to the ‘de-glycosylation buffer’ lacking brevican protein during the loading step. A 60 s biosensor washing step was applied. Then, biosensors were exposed to the analyte (peptide) in working buffer (ranging between 0-10 μM BTP) for 300 s during the ‘association’ step. Finally, the biosensors were exposed to working buffer (without peptide) during the ‘dissociation’ step for 600 s. Binding affinity of each peptide was assessed through steady state analysis, where the response unit was plotted over peptide concentration. All data was plotted and curves were fitted using the non-linear ‘one-site specific binding’ fit, and the dissociation constant (KD) value was calculated using the GraphPad Prism software.
Binding kinetics analyses were performed using the Octet RED platform (Forte Bio) to measure the binding affinity of BTP-7, 8 and 9 to purified recombinant BΔg protein.

In general, Kd refers to a measure of binding affinity in units of concentration.

Where a SMILES comes first, the peptide text is derived from it. Where no end group is shown, it is not given here. [ ]: non-standard residue; d: D form. Ahx = NCCCCCC(=O)O

In the case of “BTP-10: BΔg-targeting peptide of 8 D-amino acid residues from OBOC screen; sequence only in FIG. 3A ([dS][dH][dW][dA][dV][dN][dR][dF]; not fully specified)”, the “uptake in HEK-Bcan cells in the presence of the blocking peptide” value in assay [1] was “reduced uptake”.

Take “BTP-8-Cy5.5 ([dT][dI][dR][dK][dL][dV][dR][dH]-{Ahx-Pra(Cy5.5)-NH2})”: in assay [2], the “uptake in HEK-Bcan cells compared with regular HEK cells” value is given as “significantly higher”. In assay [3], the “uptake in GBM-6 GSCs compared with astrocytes” value was “significantly higher” and the “uptake in GBM-6 cells at 4° C. compared to 37° C.” value was “significantly reduced”.

`CC[C@@H](C)[C@@H](NC(=O)[C@@H](C)NC(=O)[C@@H](CCCNC(=N)N)NC(=O)[C@@H](CCC(N)=O)NC(=O)[C@@H](CCCNC(=N)N)NC(=O)[C@@H](CCCNC(=N)N)NC(=O)[C@@H](CC(=O)O)NC(=O)[C@@H](C)N)C(N)=O` [BTP-9] (H-[dA][dD][dR][dR][dQ][dR][dA][dI]-NH2; N-terminus and C-terminus assumed): in assay [4], the “size of the difference in uptake between BT188 and BT145 GSCs (ranking)” value is “largest and most significant difference”; the “uptake in BT188 GSCs compared with BT145 GSCs” value is given as “greater uptake”. In addition, the Kd in assay [5] was 1500 nM. Also, the “uptake in HEK-Bcan cells in the presence of the blocking peptide” value in assay [1] is on record as “reduced uptake”.

Take “BTP-9-Cy5.5 ([dA][dD][dR][dR][dQ][dR][dA][dI]-{Ahx-Pra(Cy5.5)-NH2})”: the “uptake in HEK-Bcan cells compared with regular HEK cells” value in assay [2] is given as “significantly higher”. In addition, in assay [3], the “uptake in GBM-6 GSCs compared with astrocytes” value is “significantly higher” and the “uptake in GBM-6 cells at 4° C. compared to 37° C.” value is listed as “significantly reduced”.
